Patent publication US5202320A, “Method for treating leishmaniasis” (priority 1989, dated 1993)

Legend:
[1] = test system: Leishmania mexicana amazonensis; test: In vitro screening for anti-leishmanial activity: inhibition of 3H-thymidine incorporation by promastigotes; format: cell-based; conditions: for IC50: PREVIOUS, Table III only
Procedure: Leishmania mexicana amazonensis, strain MHOM/BR/73/M2269 (WR669), promastigotes were grown to early log phase in Schneider's Drosophila Medium (GIBCO) supplemented with 20% heat-inactivated fetal bovine serum GIBCO) and 100 ug/ml gentamicin sulfate [Parasitology 76:309 (1978)]. The assay medium was Schneider's plus 10% fetal bovine serum. Serial dilutions of the compounds of use in the present invention were suspended in the assay medium an prepared in duplicate rows of a 96-well microtiter plate. Parasite suspension (200 ul) at 2.5×10^6 cells/ml was added to each well and each plate was sealed and incubated under air at 25° C. After 24 hours, [methyl-3H] thymidine (20 Ci/mmol) was added to yield 1-2 uCi/well. After an additional 18 hours, the cells were harvested with a Skatron cell harvester onto glass microfiber filters. The filter disks were washed and dried and counted using a Beckman LS3801 scintillation counter. The data on uptake of ^3 H-thymidine was fitted to a logistic-logarithmic concentration response function by a non-linear regression method and the drug concentrations required to inhibit 50% incorporation of ^3 H-thymidine were determined [Antimicrob. Agents Chemother. 16:710 (1979); Exper. Parasitol. 66:86 (1988)].

[2] = test system: leishmaniasis; conditions: Reviews of Infectious Diseases 10(3):576-577; Experimental Parasitology 52:409 (1981); cited from earlier work
[3] = test system: Preumocystis carinii pneumonia; conditions: especially immunocompromised patients suffering from AIDS; cited from earlier work
[4] = test system: trypanosomiasis; conditions: in vivo; cited from earlier work

| SMILES | anti-Leishmania activity (in words) [1] | IC50 ([1]; Leishmania mexicana) [nM] | also measured |
| --- | --- | --- | --- |
| N=C(N)c1ccc(OCCCCCOc2ccc(C(=N)N)cc2)cc1 [Example 4, pentamidine] | moderately effective against Leishmania |  | utility for treating leishmaniasis (in words) [2]: limited utility for the purpose of treating leishmaniasis; usefulness in treatment of Preumocystis carinii pneumonia (in words) [3]: extremely useful in the treatment of Preumocystis carinii pneumonia; usefulness for treatment of trypanosomiasis (in words) [4]: useful for the treatment of trypanosomiasis |
| N=C(N)c1ccc(NCCCCCNc2ccc(C(=N)N)cc2)cc1 [Example 8] | high-degree of anti-Leishmania activity |  |  |
| N=C(N)c1ccc(OCCCCCCOc2ccc(C(=N)N)cc2)cc1 [Example 9, hexamidine] | high-degree of anti-Leishmania activity |  |  |
| c1cc(C2=NCCN2)ccc1OCCCCCOc1ccc(C2=NCCN2)cc1 [Example 15] |  | 670 |  |
| CN1CCN=C1c1ccc(OCCCCCOc2ccc(C3=NCCN3C)cc2)cc1 [Example 16] |  |  | IC50 [1]: > 4500 nM |
| COc1cc(C2=NCCN2)ccc1OCCCOc1ccc(C2=NCCN2)cc1OC [Example 17] |  | > 4500 |  |
